Measurements: ChEMBL document CHEMBL1201862, “PubChem BioAssay data set” (2004)
Blank lines part the entries; values can stand above or below the molecule they belong to. The source made the active and inactive calls.

Legend:
Cytochrome P450 2C19 = Cytochrome P450 2C19 (Homo sapiens, UniProt P33261); assay: Cytochrome panel assay with activity outcomes. Panel member name: p450-cyp2c19 Compounds with AC50 equal or less than 10 uM are considered active; type: functional
Cytochrome P450 1A2 = biological target: T1, Cytochrome P450 1A2 (Homo sapiens, UniProt P05177);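 also: PubChem cytochrome P450 panel assay, CYP1A2 panel member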
T1 sequence (P05177 whole entry): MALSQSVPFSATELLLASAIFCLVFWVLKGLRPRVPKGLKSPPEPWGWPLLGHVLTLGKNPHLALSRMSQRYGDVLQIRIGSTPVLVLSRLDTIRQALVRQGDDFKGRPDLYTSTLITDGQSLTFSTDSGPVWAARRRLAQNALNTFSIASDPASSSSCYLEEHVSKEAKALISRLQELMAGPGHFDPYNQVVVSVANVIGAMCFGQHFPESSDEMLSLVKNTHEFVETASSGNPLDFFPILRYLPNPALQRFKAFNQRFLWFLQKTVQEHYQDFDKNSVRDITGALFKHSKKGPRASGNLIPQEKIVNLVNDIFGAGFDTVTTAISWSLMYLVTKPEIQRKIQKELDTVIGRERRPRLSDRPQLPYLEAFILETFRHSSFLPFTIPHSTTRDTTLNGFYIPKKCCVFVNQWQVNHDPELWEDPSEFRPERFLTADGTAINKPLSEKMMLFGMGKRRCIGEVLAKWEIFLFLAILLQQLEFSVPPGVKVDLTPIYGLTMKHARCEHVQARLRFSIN

Cytochrome P450 3A4 = Cytochrome P450 3A4 (Homo sapiens, UniProt P08684);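 also: CYP3A4 tested as one member of a cytochrome P450 panel screen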
Sequence of Cytochrome P450 3A4 (P08684 whole entry): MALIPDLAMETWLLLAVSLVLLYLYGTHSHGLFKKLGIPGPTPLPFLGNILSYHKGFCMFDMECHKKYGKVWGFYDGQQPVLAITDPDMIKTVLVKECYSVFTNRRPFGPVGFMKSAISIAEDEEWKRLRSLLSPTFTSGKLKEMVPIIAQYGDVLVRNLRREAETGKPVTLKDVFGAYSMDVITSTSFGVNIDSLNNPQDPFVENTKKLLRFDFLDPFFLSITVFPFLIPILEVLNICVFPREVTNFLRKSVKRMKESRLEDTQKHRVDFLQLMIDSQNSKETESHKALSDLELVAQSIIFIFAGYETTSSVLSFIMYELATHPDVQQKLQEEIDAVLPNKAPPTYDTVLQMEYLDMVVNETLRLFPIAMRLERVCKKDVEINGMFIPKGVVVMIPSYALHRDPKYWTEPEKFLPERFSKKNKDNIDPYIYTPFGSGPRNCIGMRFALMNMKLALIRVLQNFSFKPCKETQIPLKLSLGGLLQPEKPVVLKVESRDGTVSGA

Cytochrome P450 2C9 = Cytochrome P450 2C9 (Homo sapiens, UniProt P11712)
Sequence of Cytochrome P450 2C9 (P11712 whole entry): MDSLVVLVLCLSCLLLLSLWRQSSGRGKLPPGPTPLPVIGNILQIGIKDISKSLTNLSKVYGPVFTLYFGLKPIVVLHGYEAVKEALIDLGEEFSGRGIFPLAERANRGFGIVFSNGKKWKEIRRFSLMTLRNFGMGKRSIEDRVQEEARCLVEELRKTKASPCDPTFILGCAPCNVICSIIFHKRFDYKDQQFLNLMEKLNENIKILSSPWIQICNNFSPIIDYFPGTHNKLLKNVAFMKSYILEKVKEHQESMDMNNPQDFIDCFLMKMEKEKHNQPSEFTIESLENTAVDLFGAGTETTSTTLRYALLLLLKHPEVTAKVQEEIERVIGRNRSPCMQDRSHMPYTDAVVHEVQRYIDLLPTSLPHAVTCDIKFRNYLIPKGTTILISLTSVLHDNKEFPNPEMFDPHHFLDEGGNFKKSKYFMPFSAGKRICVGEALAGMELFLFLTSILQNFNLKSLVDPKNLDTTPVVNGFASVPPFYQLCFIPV

[1] = Trypanosoma cruzi growth suppression in host cells – NIH3T3 host cells, beta-gal luminescence, confirmation (AID 2044); type: functional, cell-based;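 also: intracellular parasites grown in NIH/3T3 mouse fibroblasts as host cells; luminescent beta-galactosidase reporter signal from transgenic T. cruzi replicating inside host cells; inhibitors lower the luminescence signal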
[2] = NIH3T3 cell viability loss – ATP luminescence, mouse fibroblasts, counter-screen, dose response (AID 2010); type: functional, cell-based;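 also: cells exposed to compound for about 90 hours before reading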
[3] = system: Streptococcus sp. 'group A'; assay: Streptococcus pyogenes SK(-)GAS viability under kanamycin – luminescence, BacTiterGlo, confirmation, counter-screen for streptokinase expression inhibitor project, dose response (AID 1900); type: functional, organism-based
Streptococcus = assay: GAS UMAA2166 growth inhibition – luminescence, BacTiterGlo, counter-screen for streptokinase expression inhibitor project, dose response (AID 1915); type: functional, organism-based;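 also: potency for reduction of bacterial viability or growth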

Sequence of Cytochrome P450 2C19 (P33261 whole entry): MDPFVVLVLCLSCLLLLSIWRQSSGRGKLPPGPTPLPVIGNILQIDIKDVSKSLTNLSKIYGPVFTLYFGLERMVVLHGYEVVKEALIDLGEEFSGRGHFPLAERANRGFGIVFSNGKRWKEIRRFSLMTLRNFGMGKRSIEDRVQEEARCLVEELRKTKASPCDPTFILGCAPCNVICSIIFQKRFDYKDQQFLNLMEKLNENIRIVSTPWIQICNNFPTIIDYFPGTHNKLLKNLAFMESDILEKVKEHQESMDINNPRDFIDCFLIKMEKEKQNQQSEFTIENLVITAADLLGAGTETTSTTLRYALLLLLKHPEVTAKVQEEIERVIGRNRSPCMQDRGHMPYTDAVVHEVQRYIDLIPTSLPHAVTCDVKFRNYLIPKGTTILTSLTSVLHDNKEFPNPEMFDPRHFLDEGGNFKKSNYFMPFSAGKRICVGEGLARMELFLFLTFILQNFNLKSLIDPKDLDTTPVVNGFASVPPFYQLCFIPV

AC50 (Cytochrome P450 2C19): inconclusive
SMILES: CO[C@@H]1COC(=O)[C@@H](CCSC)NC(=O)C/C=C\[C@@H](C)COC(=O)[C@H](C)NC(=O)C/C=C\[C@H]1C

AC50 (Cytochrome P450 1A2): 15.8 µM (inconclusive)
SMILES: C[C@@H](C(=O)NCCc1c[nH]c2ccccc12)[C@H]1C[C@]1(C)[C@H](NC(=O)OCc1ccccc1)c1ccccc1

AC50 (Cytochrome P450 1A2): 2.51 µM (inconclusive)
AC50 (Cytochrome P450 3A4): 12.6 µM (inconclusive)
SMILES: COc1ccc(-n2c(=O)c(-c3ccc(F)c(F)c3)nc3cncnc32)cc1

AC50 (Cytochrome P450 2C19; read-out: AC50): 0.562 µM (inconclusive)
SMILES: Cc1cccc(-c2noc(-c3cc4ccccc4oc3=O)n2)c1

AC50 (Cytochrome P450 2C9): 25.1 µM (inconclusive)
SMILES: COc1ncc2nc(-c3ccc(Cl)cc3)c(=O)n(C[C@H]3CCCO3)c2n1

SMILES: COc1cccc(N2C(C(C)=O)=NN(c3ccccc3)C2c2ccc(N3CCOCC3)cc2)c1 (stereo not given)
EC50 [1]: 1.49 µM (active)
EC50 [2]: > 30 µM (not active)

AC50 (Cytochrome P450 3A4): 39.8 µM (inconclusive)
SMILES: CCOc1c(OC(C)=O)ccc(/C=C2\N=C(SCC)SC2=O)c1[N+](=O)[O-]

AC50 (Cytochrome P450 1A2): 28.2 µM (inconclusive)
SMILES: COc1cc(OC)nc(NC(C)=O)n1

SMILES: Cc1ccc2ccccc2c1CSc1nc(N)nc2c1ncn2CC(C)C
AC50 (Cytochrome P450 2C9): 7.94 µM (inconclusive)

AC50 (Cytochrome P450 3A4): 39.8 µM (inconclusive)
SMILES: Cc1nnc(O)nc1NCc1ccccc1Cl

AC50 (Cytochrome P450 2C9): 4.47 µM (inconclusive)
SMILES: Clc1ccc(SCc2cc(-c3ccccc3)no2)cc1

AC50 (Cytochrome P450 3A4): 3.16 µM (inconclusive)
SMILES: Cc1ccccc1NC(=S)NC(=O)c1cc(-c2ccccc2)nc2ccccc12

SMILES: Cc1ccc(C)c(Oc2ccc(S(=O)(=O)N3CCN(C)CC3)cn2)c1
EC50 [1]: 1.14 µM (active)
EC50 [2]: > 60 µM (not active)

AC50 (Cytochrome P450 2C19; read-out: AC50): 15.8 µM (inconclusive)
SMILES: COCCNc1ccnc(-c2ccccc2C)n1

AC50 (Cytochrome P450 3A4): 10 µM (inconclusive)
SMILES: CCCC[C@]1(C2CCCC2)Cc2cc(OCC(=O)O)c(Cl)c(Cl)c2C1=O

SMILES: CC(C)c1ccccc1[S+]([O-])c1ccccc1C(C)(C)O (stereo not given)
AC50 (Cytochrome P450 2C19; read-out: AC50): 3.16 µM (inconclusive)
AC50 (Cytochrome P450 3A4): 3.98 µM (inconclusive)

SMILES: COC(=O)C1=CN(c2cc(C)cc(C)c2)C=C(C(=O)OC)C1c1cccc(F)c1
EC50 [1]: 3.09 µM (active)
EC50 [2]: > 60 µM (not active)

SMILES: CCOC(=O)c1c(NC(=O)COC(=O)c2ccccc2NC)sc(C(=O)N(C)C)c1C
EC50 [1]: 0.75 µM (active)
EC50 [2]: > 60 µM (not active)

AC50 (Cytochrome P450 3A4): 35.5 µM (inconclusive)
AC50 (Cytochrome P450 2C9): 3.55 µM (inconclusive)
SMILES: CCOC(=O)c1ccc(Nc2nc(C(=O)OCC)nc3ccccc23)cc1

AC50 (Cytochrome P450 1A2): 25.1 µM (inconclusive)
AC50 (Cytochrome P450 2C9): 15.8 µM (inconclusive)
SMILES: COC(=O)[C@@]1(Cc2ccc(F)cc2)[C@H]2c3cc(C(=O)N(C)C)n(Cc4ccc(S(C)(=O)=O)cc4)c3C[C@H]2CN1C(=O)c1ccccc1

AC50 (Cytochrome P450 1A2): 15.8 µM (inconclusive)
SMILES: COc1ccc(C(=O)NCS(=O)(=O)c2ccc(C)cc2)cc1

SMILES: O=C(Nc1ccc(F)cc1)NC1CCN(Cc2ccccc2)CC1
EC50 [1]: 0.476 µM (active)
EC50 [2]: > 60 µM (not active)

AC50 (Cytochrome P450 2C19; read-out: AC50): 3.55 µM (inconclusive)
AC50 (Cytochrome P450 1A2): 2 µM (inconclusive)
AC50 (Cytochrome P450 3A4): 3.16 µM (inconclusive)
AC50 (Cytochrome P450 2C9): 39.8 µM (inconclusive)
SMILES: COCCNC(=O)/C(C#N)=C/c1ccc(-c2ccc(OC)cc2[N+](=O)[O-])o1

AC50 (Cytochrome P450 3A4): 6.31 µM (inconclusive)
SMILES: COC(=O)[C@@H]1CC[C@H](C)[C@@H](c2ccc(C)cc2)N1C(=O)c1ccc(/C=N\OC[C@@H](O)[C@H]2O[C@H]3OC(C)(C)O[C@H]3[C@@H]2O)cc1

AC50 (Cytochrome P450 2C19; read-out: AC50): 39.8 µM (inconclusive)
SMILES: CCN1CCN(c2nc(-c3ccccn3)nc3ccccc23)CC1

SMILES: Cc1noc(NC(=O)Nc2ccccc2F)c1C#N
AC50 (Cytochrome P450 1A2): 0.794 µM (inconclusive)

SMILES: O=C(c1cc(COc2ccc(F)cc2Cl)on1)N(Cc1ccncc1)CC1CCCO1 (stereo not given)
EC50 [1]: 0.956 µM (active)
EC50 [2]: > 60 µM (not active)

AC50 (Cytochrome P450 2C19): inconclusive
SMILES: Cn1c(=O)c2c(nc(N/N=C\c3ccccc3C(=O)O)n2C)n(C)c1=O

AC50 (Cytochrome P450 3A4): 12.6 µM (inconclusive)
AC50 (Cytochrome P450 2C9): 20 µM (inconclusive)
SMILES: CCCC1(C(=O)OC)C=C2C(=C(C(C)C)C(=O)C2C)CN1 (stereo not given)

SMILES: CCCC(C)C(=O)Nc1ncc(S(=O)(=O)c2ccc([N+](=O)[O-])cc2)s1 (stereo not given)
EC50 [1]: 2.25 µM (active)
EC50 [2]: > 60 µM (not active)

AC50 (Cytochrome P450 3A4): 1.41 µM (inconclusive)
SMILES: O=C(CSc1ncnc2c1cnn2CCc1ccccc1)Nc1ccc(F)cc1

SMILES: CCOc1ccc2nc(NC(=O)C3CCN(c4cnccn4)CC3)sc2c1
EC50 [1]: 2.48 µM (active)
EC50 [2]: > 60 µM (not active)

AC50 (Cytochrome P450 3A4): 5.01 µM (inconclusive)
SMILES: C[C@@H](c1ccccc1)N1C(=O)[C@H]2[C@H]3[C@H](O)[C@H](O)C/C(=N/OCc4ccccc4)[C@@H]3CC[C@@H]2C1=O

AC50 (Cytochrome P450 3A4): 14.1 µM (inconclusive)
SMILES: CCN(C(S)=Nc1ccccc1F)C1CCCCC1

AC50 (Cytochrome P450 3A4): 15.8 µM (inconclusive)
AC50 (Cytochrome P450 2C9): 35.5 µM (inconclusive)
SMILES: CN(C)C(=O)CSC1c2ccccc2C(=O)N1c1ccccc1 (stereo not given)

AC50 (Cytochrome P450 3A4): 14.1 µM (inconclusive)
AC50 (Cytochrome P450 2C9): 10 µM (inconclusive)
SMILES: CCC(C(=O)N1CCOCC1)n1c(C(=O)OC)cc2occc21 (stereo not given)

AC50 (Cytochrome P450 2C19; read-out: AC50): 0.316 µM (inconclusive)
AC50 (Cytochrome P450 2C9): 1.58 µM (inconclusive)
SMILES: O=C(OCc1ccccc1)/C(=C/c1ccc(Cl)cc1)NC(=O)c1ccccc1Cl

AC50 (Cytochrome P450 1A2): 10 µM (inconclusive)
SMILES: COc1ccc(-c2nc3cnc(N4CCOCC4)nc3n(-c3ccc(OC)cc3)c2=O)cc1

AC50 (Cytochrome P450 3A4): 39.8 µM (inconclusive)
SMILES: N#Cc1cccc(-c2nc3cnc(N4CCOCC4)nc3n(C3CC3)c2=O)c1

SMILES: Oc1ccc(-c2nccc(-c3ccc(Cl)cc3Cl)n2)cc1
EC50 [1]: 1.62 µM (active)
EC50 [2]: > 60 µM (not active)

SMILES: CN1CCN(S(=O)(=O)c2cnccc2N2CCN(c3cccc(Cl)c3)CC2)CC1
EC50 [1]: 1 µM (active)
EC50 [2]: > 60 µM (inconclusive)

SMILES: CCN(CC1CCCN(CCc2cccc(OC)c2)C1)C(=O)c1ccc(COC)o1 (stereo not given)
EC50 [1]: 0.445 µM (active)
EC50 [2]: 30.9 µM (active)

AC50 (Cytochrome P450 3A4): 25.1 µM (inconclusive)
SMILES: COc1cccc(C2=NOC(C(=O)NCc3ccccc3)C2)c1 (stereo not given)

AC50 (Cytochrome P450 3A4): 3.98 µM (inconclusive)
SMILES: COc1ccc(COC(=O)N/N=C2/C[C@@H](O)[C@@H](O)[C@@H]3[C@@H]4C(=O)N([C@@H](C)c5ccccc5)C(=O)[C@H]4CC[C@H]23)cc1

AC50 (Cytochrome P450 3A4): 20 µM (inconclusive)
SMILES: COCCn1c(=O)c(-c2cc(F)cc(F)c2)nc2cnc(N3CCNCC3)nc21

SMILES: CC(C)CCNC(=O)C(c1cccnc1)N(Cc1ccccc1)C(=O)Cn1nnc2ccccc21 (stereo not given)
EC50 [1]: 0.959 µM (active)
EC50 [2]: > 30 µM (not active)

AC50 (Cytochrome P450 3A4): 14.1 µM (inconclusive)
SMILES: CCN(CC)C(=O)CSc1nc(O)cc(=O)n1CC

AC50 (Cytochrome P450 2C19; read-out: AC50): 39.8 µM (inconclusive)
SMILES: COc1ccc2[nH]cc(CCNc3cc(-c4ccc(C(=O)N(C)C)cc4)ncn3)c2c1

AC50 (Cytochrome P450 2C19): inconclusive
AC50 (Cytochrome P450 2C9): 8.91 µM (inconclusive)
SMILES: CCN(CC)C(=O)c1sc2[nH]c(=S)n(-c3ccccc3)c(=O)c2c1C

SMILES: c1ccc(NN(Cc2cnccn2)c2ccccc2)cc1
AC50 (Cytochrome P450 3A4): 1 µM (inconclusive)

AC50 (Cytochrome P450 3A4): 3.98 µM (inconclusive)
SMILES: CO[C@@H]1COC(=O)[C@H]2CCCN2C(=O)[C@@H](C)COC(=O)[C@H](COCc2ccccc2)NC(=O)C/C=C\[C@H]1C

AC50 (Cytochrome P450 3A4): 3.16 µM (inconclusive)
SMILES: COC(=O)[C@@H]1CC[C@H](C)[C@@H](c2ccc(C)cc2)N1C(=O)c1ccc(/C=N\OC[C@@H]2O[C@H](c3ccccc3)C=C[C@@H]2Oc2ccc(OC)cc2)cc1

AC50 (Cytochrome P450 1A2): 14.1 µM (inconclusive)
AC50 (Cytochrome P450 3A4): 25.1 µM (inconclusive)
AC50 (Cytochrome P450 2C9): 0.0398 µM (inconclusive)
SMILES: Cc1ccccc1C(=O)NC(NCc1ccco1)C(Cl)(Cl)Cl (stereo not given)

AC50 (Cytochrome P450 2C19): inconclusive
SMILES: CCC(=O)Nc1ccc(NC(=O)CSc2nnnn2-c2cccnc2)cc1C

AC50 (Cytochrome P450 2C19; read-out: AC50): 39.8 µM (inconclusive)
AC50 (Cytochrome P450 1A2): 31.6 µM (inconclusive)
SMILES: N[C@@H](Cn1cc(I)c(=O)n(Cc2ccc(C(=O)O)cc2)c1=O)C(=O)O

AC50 (Cytochrome P450 2C9): 10 µM (inconclusive)
SMILES: CSC(=N)N/N=C/c1ccc([N+](=O)[O-])cc1

AC50 (Cytochrome P450 2C19; read-out: AC50): 11.2 µM (inconclusive)
SMILES: C=C(C)[C@H]1CC=C(C)/C(=N/NC(=O)CNc2ccccc2OC)C1

SMILES: COc1ccc(NC(C)C(=O)N/N=C/c2c(O)ccc3ccccc23)cc1 (stereo not given)
EC50 [3]: 1.95 µM (active)
EC50 (Streptococcus): 1.25 µM (active)

AC50 (Cytochrome P450 1A2): 14.1 µM (inconclusive)
AC50 (Cytochrome P450 3A4): 12.6 µM (inconclusive)
SMILES: O=C(CC(=O)N/N=C\c1c(Cl)cccc1Cl)NCc1ccccc1

AC50 (Cytochrome P450 1A2): 31.6 µM (inconclusive)
SMILES: CCn1c(=O)[nH]c2ccccc21

AC50 (Cytochrome P450 2C9): 39.8 µM (inconclusive)
SMILES: CCCCCCCCCCCCCCSCC(=O)O [TETRADECYLTHIOACETIC ACID]
